# What was measured:
# [1] = target: HEK-293 cells expressing human recombinant adenosine A2A receptor (Homo sapiens (Human), UniProt P29274); assay: cAMP assay, Assay 2 (Eu-cAMP tracer / ULight-anti-cAMP); assay type: cell-based; settings: Assay 2
# Method: The functional activity of compounds was tested using one of the two assays to detect the present of cAMP. Activation of G-protein coupled receptors (such as A2A) results in activation of adenylcyclase which converts ATP into cAMP which is used as a downstream signaling molecule. Therefore, molecules which act as GPCR (or specifically A2A receptor) antagonists cause a decrease in intracellular cAMP concentration.
# Both assays used HEK-293 cells expressing human recombinant adenosine A2A receptor were grown prior to the test in media without antibiotic.
# Assay 2 (Table B2-2): 100 nL of test articles at 100× of final concentration were transferred to assay plate by Echo. Cells were washed twice with 5 mL of PBS […]. After aspirating the PBS and adding 1.5 mL versine, cells were incubated at 37° C. for 2-5 min. After centrifugation, 4 mL of medium was added and adjusted cell density to 5,000 cells/well with Stimulation Buffer. 10 μL of cells were aliquoted to the assay plate, centrifuged at 1000 rpm for 1 minute, and incubated for 60 minutes at room temperature. 5 μL 4×Eu-cAMP tracer solution and 5 μL 4×Ulight™-anti-cAMP solution were added to assay plate, followed by centrifugation and 60-minute incubation at room temperature. Plates were read on EnVision.
# [2] = target: human adenosine A2A membrane preparation (Homo sapiens (Human), UniProt P29274); assay: Adenosine A2A receptor radioligand binding assay (SPA beads, 3H-SCH 58261, 384 plate); settings: for inhibition at 0.01 µM: read-out: A2a binding % inh @ 10 nM; for inhibition at 0.1 µM: read-out: A2a binding % inh @ 100 nM; for inhibition at 1 µM: read-out: A2a binding % inh @ 1000 nM; for inhibition at 0.001 µM: read-out: A2a binding % inh @ 1 nM
# Method: For the A2A adenosine receptor radioligand binding assay, the following modifications were made to the general protocol. GF/C filters (Perkin Elmer, 6005174), presoaked in 0.01% Brij for 2 h at room temperature were used. Filters were washed six times with 0.5 mL of ice-cold washing buffer (50 mM Tris pH 7.4) and 50 μL of Microscint 20 (Packard) was added in each well. The plates were then incubated for 15 min on an orbital shaker and then counted with a TopCount™ for 1 min/well. Another radioligand binding assay was used to evaluate the binding affinity for the adenosine A2A receptor assay was performed in duplicate in the wells of a 384 plate. Assay buffer contained DPBS 500 mM, MgCl2 0.1 mM, and 1% DMSO. Membrane-bead suspension was prepared by mixing 25.98 μL of human adenosine A2A membrane preparation (Perkin Elmer, RBHA2AM400UA) at 33.4 μg/mL, 28 μL of ADA at 20 μg/mL, and 932 μL of SPA beads at 3.33 mg/mL) and incubated the mixture for 20 min at room temperature. Mixed 20 μL of radiotracer (^3H-SCH 58261) at 15 nM to each well containing test articles at various concentrations and centrifuge the plate at 1000 rpm for 1 minute. Added 30 μL of the membraine-bead suspension to each well. Sealed the plates and incubated for 1 hr at room temperature with vigorous mixing on a plate mixer. Plates were read on Microbeta^2 (Perkin Elmer, 2450-0010).
# Sequence of human adenosine A2A membrane preparation (P29274 whole entry): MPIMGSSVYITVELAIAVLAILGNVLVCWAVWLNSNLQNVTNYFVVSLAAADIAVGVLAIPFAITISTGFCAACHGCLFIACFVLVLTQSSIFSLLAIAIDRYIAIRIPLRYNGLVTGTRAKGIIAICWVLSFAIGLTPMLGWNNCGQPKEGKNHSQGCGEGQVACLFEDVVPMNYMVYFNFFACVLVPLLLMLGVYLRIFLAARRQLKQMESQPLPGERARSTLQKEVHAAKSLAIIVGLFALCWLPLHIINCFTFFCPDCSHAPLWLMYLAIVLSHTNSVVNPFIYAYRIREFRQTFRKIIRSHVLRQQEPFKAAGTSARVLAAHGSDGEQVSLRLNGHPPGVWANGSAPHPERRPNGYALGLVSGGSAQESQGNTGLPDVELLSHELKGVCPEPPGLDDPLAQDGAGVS
# Sequence of HEK-293 cells expressing human recombinant adenosine A2A receptor (P29274 whole entry): as above
smiles,measurement,setting,value
"Cc1ccn(-c2nc(N)c(C(N)=O)nc2-c2cc(Cl)c3ncccc3c2)n1 [Compound 1.317, 3-amino-6-(8-chloroquinolin-6-yl)-5-(3-methyl-1H-pyrazol-1-yl)pyrazine-2-carboxamide]",IC50,[1],279 nM
"Nc1cnc(-c2cc(Cl)c3ncccc3c2)c(-n2ccc(C(F)(F)F)n2)n1 [Compound 1.306, 5-(8-chloroquinolin-6-yl)-6-(3-(trifluoromethyl)-1H-pyrazol-1-yl)pyrazin-2-amine]",IC50,[1],120 nM
"Cc1ccc(-c2nc(N)c(C#N)nc2-c2ccc3ncccc3c2)o1 [Compound No. 1.281, 3-amino-5-(5-methylfuran-2-yl)-6-(quinolin-6-yl)pyrazine-2-carbonitrile]",inhibition at 0.01 µM,[2],78%
same,inhibition at 0.1 µM,[2],88%
same,inhibition at 1 µM,[2],80%
"Cn1ccc(-c2nc(N)cnc2-c2cc(Cl)c3ncsc3c2)n1 [Compound 1.305, 5-(4-chlorobenzo[d]thiazol-6-yl)-6-(1-methyl-1H-pyrazol-3-yl)pyrazin-2-amine]",IC50,[1],96 nM
"Cc1cnn(-c2nc(N)cnc2-c2cc(Cl)c3ncccc3c2)c1 [Compound 1.303, 5-(8-chloroquinolin-6-yl)-6-(4-methyl-1H-pyrazol-1-yl)pyrazin-2-amine]",IC50,[1],573 nM
"Nc1cnc(-c2ccc3ncccc3c2)c(N2CCCC2)n1 [Compound 1.298, 6-(pyrrolidin-1-yl)-5-(quinolin-6-yl)pyrazin-2-amine]",IC50,[1],> 10000 nM
"Cc1ccc(-c2nc(N)c(C#N)nc2-c2ccc3ncccc3c2)s1 [Compound No. 1.282, 3-amino-5-(5-methylthiophen-2-yl)-6-(quinolin-6-yl)pyrazine-2-carbonitrile]",inhibition at 0.01 µM,[2],74%
same,inhibition at 0.1 µM,[2],82%
same,inhibition at 1 µM,[2],79%
"Cn1ccc(-c2nc(N)cnc2-c2ccc3[nH]ncc3c2)n1 [Compound 1.299, 5-(1H-indazol-5-yl)-6-(1-methyl-1H-pyrazol-3-yl)pyrazin-2-amine]",IC50,[1],1250 nM
"CC(=O)Nc1nc(-c2ccccc2)c(-c2ccc3ncccc3c2)nc1C#N [Compound No. 1.284, N-(3-cyano-6-phenyl-5-(quinolin-6-yl)pyrazin-2-yl)acetamide]",inhibition at 0.01 µM,[2],32%
same,inhibition at 0.1 µM,[2],76%
same,inhibition at 1 µM,[2],83%
"Nc1cnc(-c2ccc3ncccc3c2)c(-c2cc[nH]n2)n1 [Compound No. 1.293, 6-(1H-pyrazol-3-yl)-5-(quinolin-6-yl)pyrazin-2-amine]",inhibition at 0.001 µM,[2],28%
same,inhibition at 0.01 µM,[2],32%
same,inhibition at 0.1 µM,[2],31%
"Cn1ccc(-c2nc(N)c(C(N)=O)nc2-c2cc(Cl)c3ncccc3c2)n1 [Compound 1.311, 3-amino-6-(8-chloroquinolin-6-yl)-5-(1-methyl-1H-pyrazol-3-yl)pyrazine-2-carboxamide]",IC50,[1],279 nM
Nc1cnc(-c2cc(Cl)c3[nH]ncc3c2)c(-c2ccccc2)n1 [Compound No. 1.289],inhibition at 0.001 µM,[2],41%
same,inhibition at 0.01 µM,[2],75%
same,inhibition at 0.1 µM,[2],87%
same,inhibition at 1 µM,[2],95%
"Nc1cnc(-c2ccc3c(=O)[nH]ccc3c2)c(-c2ccccc2)n1 [Compound 1.327, 6-(5-amino-3-phenylpyrazin-2-yl)isoquinolin-1(2H)-one]",IC50,[1],173 nM
"Cc1cc(C)n(-c2nc(N)cnc2-c2ccc3ncccc3c2)n1 [Compound No. 1.291, 6-(3,5-dimethyl-1H-pyrazol-1-yl)-5-(quinolin-6-yl)pyrazin-2-amine]",inhibition at 0.001 µM,[2],0%
same,inhibition at 0.01 µM,[2],0%
same,inhibition at 0.1 µM,[2],0%
"COc1nc(-c2cc(Cl)c3ncccc3c2)c(-c2ccn(C)n2)nc1N [Compound 1.312, 5-(8-chloroquinolin-6-yl)-3-methoxy-6-(1-methyl-1H-pyrazol-3-yl)pyrazin-2-amine]",IC50,[1],251 nM
"Cc1ccn(-c2nc(N)c(Br)nc2-c2cc(Cl)c3ncccc3c2)n1 [Compound 1.316, 3-bromo-5-(8-chloroquinolin-6-yl)-6-(3-methyl-1H-pyrazol-1-yl)pyrazin-2-amine]",IC50,[1],40.1 nM
"Cn1ccc(-c2nc(N)c(Br)nc2-c2cc(Cl)c3ncccc3c2)n1 [Compound 1.324, 3-bromo-5-(8-chloroquinolin-6-yl)-6-(1-methyl-1H-pyrazol-3-yl)pyrazin-2-amine]",IC50,[1],12.5 nM
"Nc1cnc(-c2cc(Cl)c3ncccc3c2)c(-c2ccn(C3CC3)n2)n1 [Compound 1.307, 5-(8-chloroquinolin-6-yl)-6-(1-cyclopropyl-1H-pyrazol-3-yl)pyrazin-2-amine]",IC50,[1],8480 nM
"Cn1cccc(-c2nc(N)cnc2-c2cc(Cl)c3ncccc3c2)c1=O [Compound 1.329, 3-(6-amino-3-(8-chloroquinolin-6-yl)pyrazin-2-yl)-1-methylpyridin-2(1H)-one]",IC50,[1],> 10000 nM
"Cn1ccc(-c2nc(N)cnc2-c2ccc3[nH]c(=O)ccc3c2)n1 [Compound 1.353, 6-(5-amino-3-(1-methyl-1H-pyrazol-3-yl)pyrazin-2-yl)quinolin-2(1H)-one]",IC50,[1],> 10000 nM
"Cn1ccc(-c2nc(N)cnc2-c2cc(F)c3ncccc3c2)n1 [Compound 1.314, 5-(8-fluoroquinolin-6-yl)-6-(1-methyl-1H-pyrazol-3-yl)pyrazin-2-amine]",IC50,[1],1540 nM
"Cc1ccn(-c2nc(N)c(O)nc2-c2cc(Cl)c3ncccc3c2)n1 [Compound 1.313, 3-amino-6-(8-chloroquinolin-6-yl)-5-(3-methyl-1H-pyrazol-1-yl)pyrazin-2-ol]",IC50,[1],1550 nM
"CCn1ccc(-c2nc(N)cnc2-c2cc(Cl)c3ncccc3c2)n1 [Compound 1.319, 5-(8-chloroquinolin-6-yl)-6-(1-ethyl-1H-pyrazol-3-yl)pyrazin-2-amine]",IC50,[1],1930 nM
"Cc1ccn(-c2nc(N)cnc2-c2cc(C)c3[nH]ncc3c2)n1 [Compound 1.300, 5-(7-methyl-1H-indazol-5-yl)-6-(3-methyl-1H-pyrazol-1-yl)pyrazin-2-amine]",IC50,[1],120 nM
"Cc1ccn(-c2nc(N)c(C#N)nc2-c2cc(Cl)c3ncccc3c2)n1 [Compound No. 1.292, 3-amino-6-(8-chloroquinolin-6-yl)-5-(3-methyl-1H-pyrazol-1-yl)pyrazine-2-carbonitrile]",IC50,[2]; Table B1-2,2.4 nM
same,inhibition at 0.001 µM,[2],50%
same,inhibition at 0.01 µM,[2],93%
same,inhibition at 0.1 µM,[2],95%
"Cc1cnc(-c2nc(N)cnc2-c2cc(Cl)c3ncccc3c2)s1 [Compound 1.395, 5-(8-chloroquinolin-6-yl)-6-(5-methylthiazol-2-yl)pyrazin-2-amine]",IC50,[1],563 nM
"Cn1ccc(-c2nc(N)c(O)nc2-c2cc(Cl)c3ncccc3c2)n1 [Compound 1.310, 3-amino-6-(8-chloroquinolin-6-yl)-5-(1-methyl-1H-pyrazol-3-yl)pyrazin-2-ol]",IC50,[1],127 nM
"Cc1ccn(-c2nc(N)cnc2-c2cc(C)c3ncccc3c2)n1 [Compound 1.296, 6-(3-methyl-1H-pyrazol-1-yl)-5-(8-methylquinolin-6-yl)pyrazin-2-amine]",IC50,[1],130 nM
"Cc1n[nH]c(C)c1-c1nc(N)cnc1-c1ccc2ncccc2c1 [Compound 1.294, 6-(3,5-dimethyl-1H-pyrazol-4-yl)-5-(quinolin-6-yl)pyrazin-2-amine]",IC50,[1],> 10000 nM
"N#Cc1nc(-c2ccc3ncncc3c2)c(-c2ccccc2)nc1N [Compound No. 1.283, 3-amino-5-phenyl-6-(quinazolin-6-yl)pyrazine-2-carbonitrile]",inhibition at 0.01 µM,[2],63%
same,inhibition at 0.1 µM,[2],83%
same,inhibition at 1 µM,[2],95%
